Assay results published in US11834698B2, “Process for determining enzyme activity in a cell by activity-based reporter gene technology (ABRGT)” (INDIAN INSTITUTE OF SCIENCE EDUCATION AND RESEARCH, priority 2018, dated 2023).
Peptide text beside a SMILES is read from it. * marks the point of attachment. Cbz = O=C(OCc1ccccc1)*; CH2F = FC*

Tests used:
caspase-7 GFPspark = target: T1, caspase-7 GFPspark (Homo sapiens, UniProt P55210); test: AbRGT FRET imaging / acceptor photobleaching, caspase-7 GFPspark in MCF-7 cells; type: cell-based; conditions: for effect of inhibitor on FRET signal / signal in Rh channel in presence of inhibitor: MCF-7, inhibitor 50 μM pre-treatment, STS 6 h, probe 1
T1 construct: host or cells: MCF-7, HEK-293
T1 sequence (P55210 24-198 limits assumed): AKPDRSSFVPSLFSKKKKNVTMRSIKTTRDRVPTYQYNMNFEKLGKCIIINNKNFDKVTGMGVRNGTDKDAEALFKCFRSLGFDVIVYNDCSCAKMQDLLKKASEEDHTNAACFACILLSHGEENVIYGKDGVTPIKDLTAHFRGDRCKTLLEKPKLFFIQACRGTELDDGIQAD
T1 sequence (P55210 207-303 limits assumed): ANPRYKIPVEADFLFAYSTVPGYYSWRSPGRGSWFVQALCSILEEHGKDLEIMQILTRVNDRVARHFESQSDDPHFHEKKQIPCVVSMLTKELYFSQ
Experimental: FIGS. 13A and 13B depict specific detection of caspase-7 GFPspark in MCF-7 cells. […] Cells were fixed and the fluorescence signal was collected in GFP, FRET and Rh channel. […] Bar graph representing the rise in GFP intensity in ROI after rhodamine photobleaching was 89 a.u. as compared to the unbleached background, i.e., 9 a.u. FRET efficiency was calculated to be 32±2%.
FIG. 15 depicts confocal images of MCF-7 cells in GFP, FRET and Rh channel Caspase-7 GFPspark transfected MCF-7 cells were treated with STS (1 μM) for 6 h and labelled (a) (i) with probe 1 (1 μM) probe. Cells were pre-treated with (a) (ii) Z-VAD-FMK (50 μM) or (a) (iii) Q-VD-OPh (50 μM) pan-caspase inhibitors 1 h before the probe labelling. Caspase-9 GFPspark transfected MCF-7 cells were treated with STS (1 μM) for 4 h and labelled (b) (i) with probe 1 (1 μM) probe. Cells were pre-treated with (b) (ii) Z-VAD-FMK (50 μM) 1 h before probe labelling. Caspase-8 GFPspark overexpressing HEK-293 cells were treated with TRAIL (1 μg/ml) for 5 h and labelled (c) (i) with the probe 1. Cells were pre-treated with (c) (ii) Z-VAD-FMK (50 μM) 1 h before probe labelling.
(§1) Plasmids and transient transfection: GFPspark tagged plasmids; caspase-3 GFPspark tag (Cat: HG10050-ACG), caspase-7 GFPspark tag (HG10049-ACG), caspase-8 GFPspark (HG10078-ACG), caspase-9 GFPspark (HG11151-ACG) and cathepsin B GFPspark (HG10483-ACG) were procured from Sino Biological. For transfection, cells were seeded in a 6-well plate at a density of 0.4 million cells/well. At 60-70% confluency, cells were transiently transfected for 24 h at 37° C. with 1 μg of the GFPspark tagged plasmid DNA construct mixed with 5 μL of Lipofectamine 2000 (Invitrogen) according to the manufacturer's instructions. 24 h post-transfection, cells were visualized under the GFP filter for GFPspark expression under fluorescence microscope at 10× magnification.
(§2) Labelling of active caspases in apoptotic cells with FABP: After 24 h of transfection, cells were treated with STS (1 μM) drug or TRAIL (1 μg/ml) for apoptotic induction and incubated for 2, 4, 6 and 8 h at 37° C. in a humidified atmosphere of 5% CO2/95% air. Cells were gently scraped off from the surface at the end of apoptotic induction and centrifuged at 3000 rpm for 5 min. The cell pellet was resuspended in 300 μL of fresh DMEM containing 1 μM of probe for probe 2 and incubated for additional 2 h at 37° C. in a humidified atmosphere of 5% CO2. Cells were again centrifuged at 3000 rpm for 5 mins, and the supernatant was decanted. Cells were washed with 1×PBS, thrice finally resuspended in 20 μL of 1×PBS. The cell suspension was put on a slide, and a coverslip was placed over it. It was left for air drying. Slides were then imaged for GFP, FRET and rhodamine fluorescence signals under confocal microscopy.
(§3) Inhibitor assay: Cells were pre-treated with 50 μM of Z-VAD-FMK or Q-VD-OPh or E-64 inhibitor 1 h before probe 1 labelling and incubated for 1 h at 37° C. in a humidified atmosphere of 5% CO2. Cells were gently scraped off from the surface at the end of inhibitor treatment and centrifuged at 3000 rpm for 5 min Cells were then labelled with the probe 1 as described in the previous section.
(§4) Fluorescence imaging studies, FRET procedure: Images were collected on Zeiss LSM710 confocal microscope with 25 mW argon laser using Zen10 software. The laser was tuned to lines at 488 nm (excitation laser for GFPspark) and 561 nm (excitation laser for rhodamine) Cells were examined with a 40× 1.3 NA Zeiss oil immersion objective and 2.4× zoom. Images were collected in the three channels; GFP channel, argon laser tuned at 488 nm with 2% laser intensity and fluorescence emission was collected in emission range of 490-550 nm; rhodamine channel, argon laser tuned to 561 nm laser with 2% laser intensity and fluorescence emission was collected in range 550-650 nm and FRET channel with excitation laser of GFPSPARK channel and emission range of rhodamine channel. […]

cathepsin B GFPspark = target: T2, cathepsin B GFPspark (Homo sapiens, UniProt P07858); test: AbRGT FRET imaging / acceptor photobleaching, cathepsin B GFPspark in HEK-293 cells; type: cell-based
T2 construct: GFPspark (C); host or cells: HEK-293
Experimental: FIG. 20 depicts confocal images of HEK-293 cells in GFP, FRET and Rh channel Cathepsin B GFPspark transfected HEK-293 cells were treated with STS (1 μM) for 4 h and labelled (a) (i) with or (a) (iv) without probe 1. Cells were pre-treated with (a) (ii) Z-VAD-FMK (50 μM) or (a) (iii) E-64 (50 μM) inhibitor 1 h before the probe 1 labelling. (b) Quantification of the change in GFPS fluorescence intensity after rhodamine photobleaching in both unbleached control region and rhodamine bleached region (ROI), using acceptor photo-bleaching method. Error bar represents the s.e.m for n=10 cells (*P<0.00001). Scale bar, 10 μm. a.u., arbitrary units.
as §1, §2, §3, §4

[1] = HEK-293, inhibitor 50 μM 1 h before probe 1 labelling, STS 4 h

Compound	effect of inhibitor on FRET signal (caspase-7 GFPspark)	signal in Rh channel in presence of inhibitor (caspase-7 GFPspark)	effect of inhibitor on FRET signal (cathepsin B GFPspark; [1])	signal in Rh channel in presence of inhibitor (cathepsin B GFPspark; [1])	rise in GFP intensity in ROI after rhodamine photobleaching (caspase-7 GFPspark; MCF-7, STS 1 μM 5 h, probe 1 μM)	calculated FRET efficiency (caspase-7 GFPspark; MCF-7, STS 1 μM 5 h or 6 h, probe 1 μM)	FRET efficiency (cathepsin B GFPspark; HEK-293, STS 1 μM 4 h, probe 1 μM 2 h, n=10 cells)
COC(=O)C[C@H](NC(=O)[C@H](C)NC(=O)[C@@H](NC(=O)OCc1ccccc1)C(C)C)C(=O)CF [Z-VAD-FMK] (Cbz-Val-Ala-Asp(OMe)-CH2F)	completely abolished	completely abolished	completely abolished	less intense fluorescence signal was still retained			
CC(C)[C@H](NC(=O)c1ccc2ccccc2n1)C(=O)N[C@@H](CC(=O)O)C(=O)COc1c(F)cccc1F [Q-VD-OPh]	abolished	significant punctate labelling					
Rhodamine-VAD-fluoromethyl ketone [probe 1]					89 a.u.	32±2%	37±1%
